{"source": "patent US20080032939A1", "about": "“Iridoid-saccharide compound and method of using same” (Health Research, Inc., priority 2004, published 2008)", "key": {"[1]": {"assay": "Preliminary screening of toxicity in treated mice", "format": "in vivo", "settings": "mice treated with compound 3", "protocol": "(§1) On day 9, the drug administration was stopped and tumors were allowed to grow until they reached the size of approximately 350 mm^3 in volume. The drug injection was resumed (150 mg/kg/mouse) daily for another 7 days."}, "colo-26 tumors": {"test_system": "colo-26 tumors", "assay": "In vivo efficacy in mice bearing colo-26 tumors", "protocol": "(§2) All the plant products isolated from the bark of Plumeria bicolor were insoluble in water and were dissolved in 1% Tween 80 in 5% dextrose solution. Among these analogs, plumeiride 3 produced good cytotoxicity producing a lethal dose 60% (LD60) with 200 μM, and an LD20 with 400 μM C-17 in colo-26 tumor cells. […] Plumieride 3 was then evaluated for in vivo efficacy in mice (6 mice/group) bearing colo-26 tumors at variable concentrations. […] This response was doubled to 24 days when the dose was increased to 100 mg/kg/mouse (FIG. 3).\nas §1"}, "colo-26 tumor cells": {"test_system": "colo-26 tumor cells", "assay": "In vitro cytotoxicity in Colo-26 tumor cells", "format": "cell-based", "protocol": "Vehicle: 1% Tween 80 in 5% dextrose solution.\nas §2"}, "[2]": {"settings": "colo-26 tumor cells, vehicle 1% Tween 80 in 5% dextrose"}}, "data": [{"smiles": "COC(=O)C1=CO[C@@H](O[C@@H]2O[C@H](CO)[C@@H](O)[C@H](O)[C@H]2O)[C@H]2[C@@H]1C=C[C@@]21C=C([C@H](C)O)C(=O)O1", "note": "[compound 3, plumieride]", "values": [{"measurement": "visible toxicity, body weight, daily habits", "setting": "[1]", "result": "no visible toxicity as well as a change in body weight or daily habits"}, {"measurement": "tumor volume after injections were re-initiated", "setting": "colo-26 tumors; 150 mg/kg/mouse daily for another 7 days, resumed at tumor size approximately 350 mm^3", "result": "regressed to almost half the size"}, {"measurement": "tumor inhibition", "setting": "colo-26 tumors; 150 mg/kg/mouse, as long as the drug was injected (until day 9)", "result": "complete tumor inhibition"}, {"measurement": "time with no increase in tumor volume", "setting": "colo-26 tumors; dose 100 mg/kg/mouse, mice bearing colo-26 tumors", "result": 24, "unit": "days"}, {"measurement": "time with no increase in tumor volume", "setting": "colo-26 tumors; injected daily with 50 mg/kg/mouse, mice bearing colo-26 tumors", "result": 12, "unit": "days"}, {"measurement": "tumor growth delay versus untreated control mice", "setting": "colo-26 tumors; mice bearing colo-26 tumors, variable concentrations", "result": "significant tumor growth delay"}, {"measurement": "LD20", "setting": "colo-26 tumor cells; [2]", "result": 400, "unit": "µM"}, {"measurement": "lethal dose 60% (LD60)", "setting": "colo-26 tumor cells; [2]", "result": 200, "unit": "µM"}, {"measurement": "relative effectiveness among the components isolated from the bark", "setting": "colo-26 tumor cells; compared with triterpenoids 1, 2", "result": "most effective"}]}]}
